In patent publication US7070965B1, “Small molecule anticancer compounds and related production process” (priority 1998, dated 2006):

Columns and labels:
[1] = test system: mouse liver cancer HAC cell line; assay: Enhancement of effectiveness of CP, mouse liver cancer HAC ascites model; assay type: in vivo, Kunming mice; settings: CP 50 mg/kg i.p. only (positive control)
Experimental: Q-can oral liquid; mouse liver cancer HAC cell line; male Kunming mice weighing 20–25 g; commercial cyclophosphamide (CP).
Forty mice were randomly divided into 5 groups. In three test groups, 36%, 60% and 100% Q-can oral liquids (diluted with water) were given, respectively, while water was given in both control groups. On the 8th day, 0.2 ml HAC cancer cell suspensions (10^7/ml) were injected into the abdominal cavities of each mouse under aseptic condition. On the 1st, 3rd and 5th days after injection. CP (50 mg/kg) was injected i.p. into the mice in all test groups and positive control group. From the 9th day after injection, normal feeding was resumed as before the test. Date of death of each mouse was recorded, and the average life span and the rate of increase in life span were calculated. The rate of increase in life span (ILS %) is defined as following: […]

[2] = test system: Lewis mouse lung tumor
Experimental: Concentrated Q-can oral liquid (containing specific branched-chain fatty acids 3.6 mg/ml); Female F1 mice (C57/B1 and DBA/2) weighing 18–22 g; Lewis mouse lung tumor.
The mice of the test group were administrated with concentrated Q-can oral liquid at a daily dose of 36 mg specific branched-chain fatty acids per kg weight for 10 days before transplantation of Lewis mouse lung tumor. All the mice were transplanted subcutaneously in the subaxillary region with a piece of Lewis tumor of approximately 2 mm in diameter. The treatments of intraperitoneal injection of chemotherapy drug Cytoxan (CTX) in 30 mg/kg were given once a day after transplantation over an 8 day period for the positive control group. The treatments for the normal control group were daily injection of normal saline for 8 days. The administration of concentrated Q-can oral liquid for the test group was initiated 10 days before tumor transplantation and continued for another 8 days. Finally all the animals were sacrificed by spinal elongation. Tumors were excised and body and tumor weights were recorded.

[3] = test system: Human gastric adenocarcinoma SGC-7901 xenograft; assay: Human gastric adenocarcinoma SGC-7901 xenografted into nude mice; assay type: in vivo, Balb/c-nu/nu athymia mice; settings: MMC 2.0 mg/kg i.p. Qd × 14
Experimental: Female Balb/c-nu/nu athymia mice, 6 weeks old, weighing 18–22 g, housed in specific pathogen free (SPF) condition throughout the course of experiment; concentrated Q-can oral liquid contains 3.6 mg/ml specific branched-chain fatty acids; the drug used for positive control mitomycin C (MMC) was commercially available from Kyowa Hakko Kogyo Co., Ltd., Japan.
Human gastric adenocarcinoma SGC-7901 xenograft was established and maintained. For the experiment, the xenograft fragments of diameter of about 2 mm were inoculated subcutaneously into the right submaxillary regions of nude mice. The animals were randomly divided into five groups five days after inoculation. […] groups, respectively, while concentrated Q-can oral liquid was given in test groups once a day p.o., starting on the same day, at daily doses of 18, 36 and 72 mg branched-chain fatty acids per kg weight, respectively, for 14 days. Experiment was terminated 20 days post-implantation, and mice were sacrificed by spinal elongation. Tumors were removed and the weights of treated versus control tumors were compared. Inhibition rate was calculated. The experiment was repeated once.

[4] = test system: Human leukemia cell line K562; assay: MTT assay, inhibition of cell growth; assay type: cell-based; settings: Homo sapiens, K562; 30 μg/ml; 24 hours; dissolved with NaOH solution, pH 7.5; read-out: Inhibitory rate (%) on K562 cell growth
Experimental: MTT assay was performed to test the cytotoxicity. The K562 and SGC7901 cells were maintained in exponential growth in RPMI 1640 medium supplemented with 15% heat-inactivated newborn calf serum. The cells were plated at a density of 2×10^4 cells/100 μl medium/well into 96-well plate with medium containing samples in five final concentrations (7.5, 15, 30, 60 and 90 μg/ml) for iso-C15 (either synthesized or extracted) and one final concentration (30 μg/ml) for the others. The media in control wells contained no samples. The cells were incubated at 37° C. in a highly humidified incubator under 5% CO2 atmosphere for 24 hours. The supernatant was removed by fast inversion of the plate. 20 μl of 5 mg/ml MTT solution were added into each well. Incubation was continued for 4 hours. DMSO 100 μl/well was added and the plate was vibrated for 10 minutes. A570nm was read at the Immunoreader BioTek EL311S.
The inhibition rate (%)=1−(mean A570nm in test wells/mean A570nm in control wells)

[5] = test system: MCF-7 human breast adenocarcinoma cells; assay: Flow cytometry annexin V / PI apoptosis detection; assay type: cell-based; settings: 60 μg/ml
Experimental: (§1) Human cancer cell lines DU-145 (prostate cancer), K562 (leukemia), HCT116 (colon cancer), H1688 (lung cancer), SUN423 (hepatocarcinoma), MCF7 (breast cancer), CRL-1687 (pancreatic cancer), and SUN-1 (gastric cancer) were obtained from American Type Culture Collection (ATCC). 30 ml blood was collected from a health person and normal peripheral mononuclear cells were separated by Ficoll separation solution (Sigma). All cells were maintained in RPMI 1640, DMEM, or McCoy medium supplemented with 10% FCS, […] streptomycin and 100 u/ml penicillin. Normal human peripheral mononuclear cells, K562 and SUN-1 were suspended cells. After spinning at 1,500 RPM for 5 min, supernatants were discharged and cells were resuspended and expended in fresh medium. The other tumor cell lines were adherent cells and were dispersed with 0.05% trypsin/0.01% EDTA (Irvine Scientific, CA) for expansion. Cells were seeded in T75 flasks at 2×10^6 cells/flask in culture medium supplemented with 10% fetal bovine serum and incubated overnight at 37° C. with 5% CO2. The adherent cells attached to the plate were striped with disposable cell scrapers (Fisher Scientific) after treated either with 1% iso-C15, anteiso-C15 or control solution for 1, 2, 4, 8 and 24 hours and then combined with respective float cells. Cells were then prepared for flow cytometry analysis, in situ cell death detection, DNA fragmentation and Western blot assay followed the preparation methods for each assay. Cell pellets treated for 2 and 4 hr with either iso-C15 or control were also stored at −70° C. for future studies of gene regulation.
A flow cytometer (FACScan) with Consort 30 software for gating analysis (Becton Dickinson, San Jose, Calif.) was used. The Apoptosis Detection kit (R&D Systems) was used to quantitatively determine the percentage of cells undergoing apoptosis by virtue of their ability to bind annexin V and exclude propidium iodide (PI). Cells were washed in cold PBS twice and resuspended in binding buffer. Fluorescent-labeled annexin V and PI were added to the cells. The cells undergoing apoptosis, expressing phosphotidyiserine on the outer leaflet of cell membranes, would bind annexin V. The cells in later stage of apoptosis or necrosis, with a compromised cell membrane, would allow PI to bind to the cellular DNA. The resulting cells were immediately analyzed by flow cytometer equipped with a single laser emitting excitation light at 488 nm. The annexin V and PI generated signals can be detected in signal detector FL1 and FL2, respectively. […]

[6] = test system: SNU-423 human hepatocellular carcinoma cells; assay: Apoptosis morphology, light microscope; assay type: cell-based; settings: 60 μg/ml, 24 hours
Experimental: as §1, with “The adherent cells attached to the plate were striped with disposable cell scrapers (Fisher Scientific) after treated either with 1% iso-C15, anteiso-C15 or control solution for 1, 2, 4, 8 and 24 hours and then combined with respective float cells.” left out, “regulation. […]” for “regulation.”

[7] = test system: SNU-1 human gastric carcinoma cell lines; assay: Apoptosis morphology, H&E, light microscope; assay type: cell-based; settings: 60 μg/ml, 8 hours
Experimental: as §1, with “The adherent cells attached to the plate were striped with disposable cell scrapers (Fisher Scientific) after treated either with 1% iso-C15, anteiso-C15 or control solution for 1, 2, 4, 8 and 24 hours and then combined with respective float cells.” left out, “regulation. […]” for “regulation.”

[8] = CTX 30 mg/kg i.p. once a day, 8 days

In the case of `O=P1(N(CCCl)CCCl)NCCCO1` (stereo not drawn) [CP, cyclophosphamide], the “ILS % (rate of increase in life span)” value [1] is reported as 22.86%, the life span [1] is reported as 13.06 ± 3.03 days and the “mice No (>17 d)” value [1] is reported as 1. It also gave a prolonged days [1] of 2.44 ± 2.58 days.

Work on `O=P1(N(CCCl)CCCl)NCCCO1` (stereo not drawn) [CTX, Cytoxan] yielded a body weight in. (initial) ([2]; CTX 30 mg/kg i.p.) of 21.2 g, a TIR [2, 8] of 62.6% and a body weight fi. (final) [2, 8] of 20.3 g. For the same molecule, the “tumor weight mean ± SD” value [2, 8] was 0.71 ± 0.36 g and the viability ([2]; CTX i.p. injection, 8-day period) was 70%.

`CO[C@@]12[C@H](COC(N)=O)C3=C(C(=O)C(C)=C(N)C3=O)N1C[C@@H]1N[C@@H]12` [MMC, mitomycin C] was tested, and the “Body wt. Fi.” value ([3]; Test I) was 22.0, the “Body wt. In.” value ([3]; Test I) was 22.4 and the Inhibition % ([3]; Test I) was 71.49%. The “Tumor wt. X ± SD” value ([3]; Test I) was 0.33 ± 0.24 g, the “Body wt. Fi.” value ([3]; Test II) was 21.1/21.1 and the “Body wt. In.” value ([3]; Test II) was 21.1/21.1. The Inhibition % ([3]; Test II) was 73.51% and the “Tumor wt. X ± SD” value ([3]; Test II) was 0.30 ± 0.33 g.

Molecule `CCC(C)CCCCCCCCCC(=O)O` (stereo not drawn) [anteiso-C14, 11-methyltridecanoic acid] has an inhibition at 30 µg/mL [4] of 72.6%.

For `CCC(C)CCCCCCCCCCC(=O)O` (stereo not drawn) [anteiso-C15, 12-methyltetradecanoic acid], the “FL1/FL2 pattern (annexin V / PI), apoptosis” value ([5]; 4 hours) was “many cells were undergoing apoptosis”, the “FL1/FL2 pattern (annexin V / PI), apoptosis” value ([5]; 24 hours) was “the majority of cells had already died” and the inhibition at 30 µg/mL [4] was 73.1%. The “morphological changes indicative of apoptosis” value [6] was “exhibited cell volume decrease due to shrinkage and bubbles inside the cell” and the “morphological changes indicative of apoptosis” value [7] was “chromatin condensation and cytoplasmic granularity were noted”.

Molecule `CCC(C)CCCCCCCCCCCC(=O)O` (stereo not drawn) [anteiso-C16, 13-methylpentadecanoic acid] has an inhibition at 30 µg/mL [4] of 70.7%.

In the case of `CCC(C)CCCCCCCCCCCCCC(=O)O` (stereo not drawn) [anteiso-C18, 15-methylheptadecanoic acid], the inhibition at 30 µg/mL [4] is reported as 71.7%.

With `CC(C)CCCCCCCCC(=O)O` [iso-C12, 10-methylundecanoic acid] the inhibition at 30 µg/mL [4] was 70.7%.

In the case of `CC(C)CCCCCCCCCC(=O)O` [iso-C13, 11-methyllauric acid], the inhibition at 30 µg/mL [4] is reported as 71%.

`CC(C)CCCCCCCCCCC(=O)O` [iso-C14, 12-methyltridecanoic acid] showed an inhibition at 30 µg/mL [4] of 72.2%.

`CC(C)CCCCCCCCCCCCC(=O)O` [iso-C16, 14-methylpentadecanoic acid] was tested, and the inhibition at 30 µg/mL [4] was 71.6%.

`CC(C)CCCCCCCCCCCCCC(=O)O` [iso-C17, 15-methylpalmitic acid] gave an inhibition at 30 µg/mL [4] of 70.8%.

Work on `CC(C)CCCCCCCCCCCCCCC(=O)O` [iso-C18, 16-methylheptadecanoic acid] yielded an inhibition at 30 µg/mL [4] of 68.4%.

Work on `CC(C)CCCCCCCCCCCCCCCC(=O)O` [iso-C19, 17-methylstearic acid] yielded an inhibition at 30 µg/mL [4] of 69.2%.

Molecule `CC(C)CCCCCCCCCCCCCCCCC(=O)O` [iso-C20, 18-methylnonadecanoic acid] has an inhibition at 30 µg/mL [4] of 62.6%.
